# Laboratory results as given in the supplement of paper PMC11208160.
# Assay: recombinant barcode read abundance after kanamycin selection (control-corrected) (log10(CPM+1)); higher = more efficient recombination; sequences stand for … in AGTGCAGAGAAAATCGGCCAGTTTTCTCTGCCTGCAGTCCGCATGCCGT…ATTTATGCAGCGGACTGCCTTTCTCCCAAAGTGATAAACCGGACAGTATCATGGACCGGTTTTCCCGGTAATCCGTATTTGCAAGGTTGGTTTCACT; site = the 11-nt target
# Procedure: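 Same pooled E. coli target screen (IS621 bridge recombinase, kanamycin selection, control-corrected CPM, mean of 2 biological replicates). Here the two core-binding nucleotides of the LTG and RTG of the bridge RNA target-binding loop are mutated. Target and donor CT cores are held constant, and the other 9 guide positions match the target. The target is read from the library oligo sequence. Molecule = full bridge RNA written as DNA: nt 1-80 from the library oligo, rest WT scaffold.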
row,Sequence,recombinant barcode read abundance (log10)
1,"AAACATGCGTGGGTTCTAACCTGTTGCCTCG [AAACATGCTAG_LTGcore_CG_RTGcore_CG] (site AAACATGCTAG) (LTG core: CG, RTG core: CG)",0.135
2,"AAACATGCTTGGGTTCTAACCTGTTGCCTAT [AAACATGCTAG_LTGcore_CT_RTGcore_AT] (site AAACATGCTAG) (LTG core: CT, RTG core: AT)",0.681
3,"AAACATGCTTGGGTTCTAACCTGTTGCCTCA [AAACATGCTAG_LTGcore_CT_RTGcore_TG] (site AAACATGCTAG) (LTG core: CT, RTG core: TG)",0.288
4,"AAACATGCTTGGGTTCTAACCTGTTGCCTCG [AAACATGCTAG_LTGcore_CT_RTGcore_CG] (site AAACATGCTAG) (LTG core: CT, RTG core: CG)",1.02
5,"AAACATGCTTGGGTTCTAACCTGTTGCCTCT [AAACATGCTAG_LTGcore_CT_RTGcore_AG] (site AAACATGCTAG) (LTG core: CT, RTG core: AG)",0.435
6,"AAACATGCTTGGGTTCTAACCTGTTGCCTGT [AAACATGCTAG_LTGcore_CT_RTGcore_AC] (site AAACATGCTAG) (LTG core: CT, RTG core: AC)",1.55
7,"AAACATGCTTGGGTTCTAACCTGTTGCCTTC [AAACATGCTAG_LTGcore_CT_RTGcore_GA] (site AAACATGCTAG) (LTG core: CT, RTG core: GA)",0.572
8,"AAACATGCTTGGGTTCTAACCTGTTGCCTTG [AAACATGCTAG_LTGcore_CT_RTGcore_CA] (site AAACATGCTAG) (LTG core: CT, RTG core: CA)",1.17
9,"AAACATGGATGGGTTCTAACCTGTTGCCTTC [AAACATGCTAG_LTGcore_GA_RTGcore_GA] (site AAACATGCTAG) (LTG core: GA, RTG core: GA)",0.0557
10,"AAACATGGTTGGGTTCTAACCTGTTGCCTAG [AAACATGCTAG_LTGcore_GT_RTGcore_CT] (site AAACATGCTAG) (LTG core: GT, RTG core: CT)",0.108
11,"AAACATGTTTGGGTTCTAACCTGTTGCCTAG [AAACATGCTAG_LTGcore_TT_RTGcore_CT] (site AAACATGCTAG) (LTG core: TT, RTG core: CT)",0.0409
12,"ACGGGACAATGGGTTCTAACCTGTTGCAGAG [ACGGGACCTCT_LTGcore_AA_RTGcore_CT] (site ACGGGACCTCT) (LTG core: AA, RTG core: CT)",0.0324
13,"ACGGGACAATGGGTTCTAACCTGTTGCAGTT [ACGGGACCTCT_LTGcore_AA_RTGcore_AA] (site ACGGGACCTCT) (LTG core: AA, RTG core: AA)",0.298
14,"ACGGGACAGTGGGTTCTAACCTGTTGCAGCT [ACGGGACCTCT_LTGcore_AG_RTGcore_AG] (site ACGGGACCTCT) (LTG core: AG, RTG core: AG)",0.237
15,"ACGGGACCCTGGGTTCTAACCTGTTGCAGGG [ACGGGACCTCT_LTGcore_CC_RTGcore_CC] (site ACGGGACCTCT) (LTG core: CC, RTG core: CC)",1.21
16,"ACGGGACCTTGGGTTCTAACCTGTTGCAGAC [ACGGGACCTCT_LTGcore_CT_RTGcore_GT] (site ACGGGACCTCT) (LTG core: CT, RTG core: GT)",0.9
17,"ACGGGACCTTGGGTTCTAACCTGTTGCAGAT [ACGGGACCTCT_LTGcore_CT_RTGcore_AT] (site ACGGGACCTCT) (LTG core: CT, RTG core: AT)",1.4
18,"ACGGGACCTTGGGTTCTAACCTGTTGCAGGA [ACGGGACCTCT_LTGcore_CT_RTGcore_TC] (site ACGGGACCTCT) (LTG core: CT, RTG core: TC)",0.528
19,"ACGGGACGATGGGTTCTAACCTGTTGCAGAG [ACGGGACCTCT_LTGcore_GA_RTGcore_CT] (site ACGGGACCTCT) (LTG core: GA, RTG core: CT)",0.81
20,"ACGGGACGCTGGGTTCTAACCTGTTGCAGAG [ACGGGACCTCT_LTGcore_GC_RTGcore_CT] (site ACGGGACCTCT) (LTG core: GC, RTG core: CT)",0.257
21,"ACGGGACGGTGGGTTCTAACCTGTTGCAGAG [ACGGGACCTCT_LTGcore_GG_RTGcore_CT] (site ACGGGACCTCT) (LTG core: GG, RTG core: CT)",0.14

row,Sequence,recombinant barcode read abundance (log10)
1,"ACGGGACTGTGGGTTCTAACCTGTTGCAGAG [ACGGGACCTCT_LTGcore_TG_RTGcore_CT] (site ACGGGACCTCT) (LTG core: TG, RTG core: CT)",0.397
2,"ACGGGACTGTGGGTTCTAACCTGTTGCAGCA [ACGGGACCTCT_LTGcore_TG_RTGcore_TG] (site ACGGGACCTCT) (LTG core: TG, RTG core: TG)",0.179
3,"ACGGGACTTTGGGTTCTAACCTGTTGCAGAA [ACGGGACCTCT_LTGcore_TT_RTGcore_TT] (site ACGGGACCTCT) (LTG core: TT, RTG core: TT)",0.0398
4,"ACGGGACTTTGGGTTCTAACCTGTTGCAGAG [ACGGGACCTCT_LTGcore_TT_RTGcore_CT] (site ACGGGACCTCT) (LTG core: TT, RTG core: CT)",0.0241
5,"AGGAGGTAATGGGTTCTAACCTGTTGCCTAG [AGGAGGTCTAG_LTGcore_AA_RTGcore_CT] (site AGGAGGTCTAG) (LTG core: AA, RTG core: CT)",0.278
6,"AGGAGGTAGTGGGTTCTAACCTGTTGCCTAG [AGGAGGTCTAG_LTGcore_AG_RTGcore_CT] (site AGGAGGTCTAG) (LTG core: AG, RTG core: CT)",0.122
7,"AGGAGGTCTTGGGTTCTAACCTGTTGCCTGC [AGGAGGTCTAG_LTGcore_CT_RTGcore_GC] (site AGGAGGTCTAG) (LTG core: CT, RTG core: GC)",0.814
8,"AGGAGGTCTTGGGTTCTAACCTGTTGCCTGG [AGGAGGTCTAG_LTGcore_CT_RTGcore_CC] (site AGGAGGTCTAG) (LTG core: CT, RTG core: CC)",0.551
9,"AGGAGGTGATGGGTTCTAACCTGTTGCCTAG [AGGAGGTCTAG_LTGcore_GA_RTGcore_CT] (site AGGAGGTCTAG) (LTG core: GA, RTG core: CT)",0.417
10,"AGGAGGTTATGGGTTCTAACCTGTTGCCTAG [AGGAGGTCTAG_LTGcore_TA_RTGcore_CT] (site AGGAGGTCTAG) (LTG core: TA, RTG core: CT)",0.0987
11,"AGGAGGTTTTGGGTTCTAACCTGTTGCCTAG [AGGAGGTCTAG_LTGcore_TT_RTGcore_CT] (site AGGAGGTCTAG) (LTG core: TT, RTG core: CT)",0.0313
12,"AGGCCTCCATGGGTTCTAACCTGTTGCCTAG [AGGCCTCCTAG_LTGcore_CA_RTGcore_CT] (site AGGCCTCCTAG) (LTG core: CA, RTG core: CT)",0.44
13,"AGGCCTCCTTGGGTTCTAACCTGTTGCCTAG [AGGCCTCCTAG_LTGcore_CT_RTGcore_CT] (site AGGCCTCCTAG) (LTG core: CT, RTG core: CT)",1.32
14,"AGGCCTCCTTGGGTTCTAACCTGTTGCCTCG [AGGCCTCCTAG_LTGcore_CT_RTGcore_CG] (site AGGCCTCCTAG) (LTG core: CT, RTG core: CG)",0.401
15,"AGGCCTCCTTGGGTTCTAACCTGTTGCCTTT [AGGCCTCCTAG_LTGcore_CT_RTGcore_AA] (site AGGCCTCCTAG) (LTG core: CT, RTG core: AA)",0.116
16,"AGGCCTCGATGGGTTCTAACCTGTTGCCTAG [AGGCCTCCTAG_LTGcore_GA_RTGcore_CT] (site AGGCCTCCTAG) (LTG core: GA, RTG core: CT)",0.24
17,"AGGCCTCGTTGGGTTCTAACCTGTTGCCTAG [AGGCCTCCTAG_LTGcore_GT_RTGcore_CT] (site AGGCCTCCTAG) (LTG core: GT, RTG core: CT)",0.148
18,"AGGCCTCTGTGGGTTCTAACCTGTTGCCTAG [AGGCCTCCTAG_LTGcore_TG_RTGcore_CT] (site AGGCCTCCTAG) (LTG core: TG, RTG core: CT)",0.11
19,"AGGCGGGAGTGGGTTCTAACCTGTTGCGGCT [AGGCGGGCTCC_LTGcore_AG_RTGcore_AG] (site AGGCGGGCTCC) (LTG core: AG, RTG core: AG)",0.0482
20,"AGGCGGGATTGGGTTCTAACCTGTTGCGGAG [AGGCGGGCTCC_LTGcore_AT_RTGcore_CT] (site AGGCGGGCTCC) (LTG core: AT, RTG core: CT)",0.447
